Results on one compound are retold here after article PMC3541985, “Improvement of Catalytic Efficiency, Thermo-stability and Dye Decolorization Capability of Pleurotus ostreatus IBL-02 laccase by Hydrophobic Sol Gel Entrapment” (Chemistry Central Journal, 2012).

Broadly, the Km is the concentration of substrate that gives half-maximal velocity.

SMILES strings stand for the structures.

The subject of this experiment is T1, P. ostreatus IBL-02 laccase.
T1 construct: gene pox2
The note with it: free (not immobilised) enzyme; ABTS varied 0.1-1 mM, so the printed unit mM is doubtful; standard assay malonate buffer pH 4.5, 25°C.

Take `CCn1c(=NN=c2sc3cc(S(=O)(=O)O)ccc3n2CC)sc2cc(S(=O)(=O)O)ccc21` [ABTS, 2, 2′-azino-bis-3-ethylbenzothiazoline-6-sulfonic acid]: the Km is 33 mM.
